This note sets out measurements from patent US20160324818A1, “DIET FOOD COMPOSITION INCLUDING DHA TO REDUCE SHORT-TERM AND LONG-TERM LOW-GRADE INFLAMMATION” (PRI S.A., priority 2013, published 2016).

Common to all, as to assay type: in vivo, human (obese patients, average BMI=33)
For one assay, the system named is PD1. Nature of the assay: Slimming study: blood level of anti-inflammatory marker PD1. Particulars: day 60; control group reduced by 36%. How it is done: (§1) A study under medical supervision was conducted among obese patients (average BMI=33). The subjects were separated into two groups: • a “control” group consuming food compositions similar to those of the invention but without DHA; and • a “study” group consuming food compositions according to the invention comprising DHA.
At the start of the program as well as after 30 days if necessary, then 60 days and at the end of 6 months the subjects underwent a blood test in order to evaluate their levels of pro-inflammatory and anti-inflammatory markers depending on their increase or loss of weight. The markers or molecules indicating the presence of inflammation that were tested for were leucocytes, neutrophils, the reactive protein C (PRC), TNF-α, interleukin 6, leptin, resistin and adiponectin. […]

The nature of assay [1]: Slimming study under medical supervision: weight loss and waistline. How it is done:
as §1
For the first 60 days of the study, the patients in the study group each received 500 mg of DHA per day solely through the consumption of food compositions and portions according to the invention. Their calorie intake was below 800 kcals per day and was presented chiefly in the form of food compositions or portions according to the invention. To be more precise, the patients consumed five food portions according to the invention during the day, two of them during the main meals where the portions were accompanied by vegetables in order to ensure their DHA intake especially. […] The goal was to re-educate the patient in terms of food intake. Traditional foods were gradually re-introduced into the patient's daily food intake in order to avoid deficiency and fatigue as well as to re-educate him or her on the food intake level.
The progress of the waistline measurements in the two groups of patients is shown in the graph of FIG. 2. The waistline measurement makes it possible to evaluate loss of abdominal fat, a parameter associated with the metabolic syndrome. […]

The test system of assay [2] is ultrasensitive reactive protein C (PRCus). The assay is described as follows: Slimming study: blood level of ultrasensitive reactive protein C. As to conditions: DHA every day during slimming diet (FIG. 3); control group 12%. How it is done: as §1
At the start of the program as well as after 30 days if necessary, then 60 days and at the end of 6 months the subjects underwent a blood test in order to evaluate their levels of pro-inflammatory and anti-inflammatory markers depending on their increase or loss of weight. The markers or molecules indicating the presence of inflammation that were tested for were leucocytes, neutrophils, the reactive protein C (PRC), TNF-α, interleukin 6, leptin, resistin and adiponectin.
For the first 60 days of the study, the patients in the study group each received 500 mg of DHA per day solely through the consumption of food compositions and portions according to the invention. Their calorie intake was below 800 kcals per day and was presented chiefly in the form of food compositions or portions according to the invention. […]
It can be seen from FIGS. 3 and 4 that there was a diminishing of the pro-inflammatory markers. Two inflammation markers associated with obesity were tested for and their levels were measured: these were ultrasensitive reactive protein C (PRCus) and leptin.

Structures are written as SMILES.

As for `CC/C=C\C/C=C\C/C=C\C/C=C\C/C=C\C/C=C\CCC(=O)O` [DHA, docosahexaenoic acid], the “change of PD1 level as compared with day 0” value with PD1 is given as “+83%”. The average weight loss entry in assay [1] (6 months (D-180) from D-0, same figure stated for both groups) was “about 20 kg”. Moreover, the “average loss in waistline measurement” value in assay [1] (end of 60 days, same figure stated for each group) is “about 15 cm”. In assay [2], the “reduction of PRC rate” value is recorded as “approximately 18%”.
